Source: patent US20220105058A1, “USE OF 3-O-SULFAMATE-16,16-DIMETHYL-D-HOMOEQUILENIN TO TREAT ONCOLOGICAL DISEASES” (priority 2018, published 2022)
“And” between values parts separate entries of the source, which are not always exact repeats. Identical values can stand only once. “Also recorded” adds a separate entry of the source. Like-named read-outs stand apart in the source and are kept apart here.

Experiments:
[1] = system: MCF-7 human cells culture (breast adenocarcinoma); assay: proliferation of passaged MCF-7 cell culture; assay type: cell-based
Procedure: The study analysis was carried out on an passaged MCF-7 human cells culture culture (breast adenocarcinoma). Normal human dermal fibroblasts (HDF) of early passages were used as a negative control. The cells were cultivated in Carrel vials in DMEM/F12 medium (Biolot) with 1.0% of antibiotic-free fetal bovine embryonic serum (Biolot) added in the 5% CO2 atmosphere, at 37° C.
The cells were seeded on Carrel vials at 50×10^4 cells per flask. To study the proliferative activity of the cells under conditions of sulfatase inhibition, 24 hours after seeding the culture medium […], and then these tumor cell lines were incubated for various periods of time (24 to 72 hrs). The inhibitor was dissolved in DMSO. […] To exclude the cytotoxic effect of DMSO, a control sample comprising DMSO without sulfatase inhibitor was prepared. To exclude nonspecific detrimental effects of the compounds, normal human skin fibroblasts were used. Then the cells were detached with the versene-trypsin solution (Biolot), plated onto Carrel vials containing a fresh complete culture medium. The cells were counted when untreated control cells reached the maximum cell density per unit of surface area of a culture flask (monolayer), and their number was set as 100%. The proliferative activity of all of the studied cell cultures exposed to sulfatase inhibitors was determined in triplicate.

[2] = system: triple negative breast cancer MDA-MB-231 cell line; assay: cell proliferation in MDA-MB-231; assay type: cell-based
[3] = system: hepatocellular carcinoma SK-Hep-1 cells; assay: activity against SK-Hep-1 cells; assay type: cell-based; details: Homo sapiens, SK-HEP1
[4] = system: lung cancer A549; assay: activity against A549; assay type: cell-based; details: Homo sapiens
[5] = acute oral toxicity, OECD 423 test; details: for Lethal effects (dead/total): 14 days observation
Procedure: LD50 of the medicament was determined in FVB mice transgenic for HER-2/neu using the OECD 423 test (OECD guideline for testing of chemicals. Acute Oral Toxicity-Acute Toxic Class Method).
12 female mice were used in the experiment.
At the first step, 3 mice were given the medicament at a dose of 300 mg/kg. The study medicament was administered intragastrically (i.g.) using a metal atraumatic gavage (the procedure corresponds to the oral administration in clinical settings). […] The dosage form for administration was prepared ex tempore.
The animals were examined 2 times a day, clinically examined individually after the dose administration during the first 60 minutes, with special attention during the first 4 hours, periodically during the first 24 hours, on Day 2 and weekly for up to 14 days. Each animal was thoroughly examined in the housing cage in the observer's hands. The overall conditions of the animals were recorded, such as peculiarities in their behavior, intensity and nature of motor activity, fur and skin appearance.
The body weights of the animals were recorded using a verified high-speed electronic laboratory balance Ohaus Scout Pro (USA) with a maximum load of 2000 g and a measurement step of 0.1 g.
On Day 15, the animals were euthanized and undergone autopsy analysis with the registration of macroscopic changes. The data was collected in a special individual autopsy form.
All of the experimental animals were subject to pathomorphological examination at the end of the study. The euthanized animals were carefully examined for the external pathological changes. The chest and abdominal cavities were examined along with the macroscopic analysis of internal organs.
When assessing the acute toxicity the animals were continuously observed for the first 60 minutes, and then examined every hour for 3 hours and further once in 24 hours. On the second day, the observation was carried out twice per day. Further the observations were made once per day. […] The animal was thoroughly examined in the housing cage in the observer's hands. The overall conditions of the animals were recorded, such as peculiarities in their behavior, intensity and nature of motor activity, fur and skin appearance.

[6] = body weight and tolerability during the antitumor study; details: for average body weight of mice (M): Tamoxifen 4.0 mg/kg i.g. daily; for Body weight: Tamoxifen 4 mg/kg
Procedure: The study medicament was administered i.g. using a metal atraumatic gavage (with the procedure corresponds to the oral route of administration in clinical settings). The medicament was administered in a single daily dose (20 mg/kg of body weight) and 5-fold daily dose of 100 mg/kg of body weight. Ex tempore solutions of the medicament for administration were prepared in olive oil (refined olive oil supplemented with unrefined extra virgin olive oil available under Global Village “Clasico” trademark, lot L:183351116, expiry date 26 Apr. 2020, BAIEO, Spain). The administered volume was 0.1 ml per 10 g of a mouse body weight (0.2 ml of a ready-to-use formulation for a mouse of 20 g). The medicament administration was started 24 hours after the randomization. The duration of the administration course was 27-28 days.
This dose corresponds to a human daily dose of 20 mg/kg.
The evaluation criteria included the clinical observation data, animals body weights, time of death (if applicable), tumor growth over time, pathomorphological examination data (verification of a neoplasm during autopsy, assessment of toxic effects by macroscopic presentation of changes in the internal organs).
The animals body weights were recorded before the first administration of the medicaments and then twice per week using a verified high-speed electronic laboratory balance Ohaus Scout Pro (USA) with a maximum load of 2000 g and a measurement step of 0.1 g.

[7] = cholesterol and triglycerides in blood serum (summary statement)

CC1(C)CC(=O)[C@@]2(C)CCc3c(ccc4cc(OS(N)(=O)=O)ccc34)[C@@H]2C1 [medicament, 3-O-sulfamate-16,16-dimethyl-D-homoequilenin]
proliferation of tumor MCF-7 cells [1]: completely inhibits proliferation | proliferation of tumor MCF-7 cells ([1]; concentration of 20 μg/ml): completely blocks the proliferation | inhibition of cell proliferation [2]: 83% | IC50 [3]: 53.4 µM | IC50 [4]: 29.6 µM | signs of intoxication ([5]; 300 mg/kg): None of the animals exhibited visual signs of intoxication | Lethal effects (dead/total) ([5]; 300 mg/kg i.g.): no animals died and no animals deaths were detected and 0/6 | average body weight ([5]; 300 mg/kg, Day 1 (before administration)): 28.1 g | body weight of individual mice ([5]; 300 mg/kg, Day 1 (before administration), in g (unit assumed)): 29.6 and 27.8 and 28.0 and 30.0 and 27.0 and 26.4 | average body weight ([5]; 300 mg/kg, Day 2): 28.1 g | average body weight, % from baseline ([5]; 300 mg/kg, Day 2): 0% | body weight of individual mice ([5]; 300 mg/kg, Day 2, in g (unit assumed)): 29.2 and 27.4 and 27.8 and 30.4 and 27.2 and 26.8 | average body weight ([5]; 300 mg/kg, Day 7): 29.1 g | average body weight, % from baseline ([5]; 300 mg/kg, Day 7): 3% | body weight of individual mice ([5]; 300 mg/kg, Day 7, in g (unit assumed)): 29.6 and 28.2 and 29.7 and 31.2 and 28.4 and 27.2 | average body weight ([5]; 300 mg/kg, Day 14): 29.5 g | average body weight, % from baseline ([5]; 300 mg/kg, Day 14): 5% | body weight of individual mice ([5]; 300 mg/kg, Day 14, in g (unit assumed)): 30.2 and 29.0 and 30.6 and 31.1 and 28.6 and 27.6 | clinical signs of intoxication ([5]; 2000 mg/kg): No clinical signs of intoxication were observed | Lethal effects (dead/total) ([5]; 2000 mg/kg i.g. in 2 steps): 0/6 | average body weight ([5]; 2000 mg/kg, Day 1 (before administration)): 26.2 g | body weight of individual mice ([5]; 2000 mg/kg, Day 1 (before administration), in g (unit assumed)): 28.4 and 27.5 and 25.7 and 24.2 and 24.0 and 27.2 | average body weight ([5]; 2000 mg/kg, Day 2): 25.8 g | average body weight, % from baseline ([5]; 2000 mg/kg, Day 2): −1% | decrease in the average body weight from baseline ([5]; 2000 mg/kg, Day 2): 1% | body weight of individual mice ([5]; 2000 mg/kg, Day 2, in g (unit assumed)): 28.0 and 26.8 and 25.3 and 24.4 and 23.8 and 26.4 | average body weight ([5]; 2000 mg/kg, Day 7): 25.7 g | average body weight, % from baseline ([5]; 2000 mg/kg, Day 7): −2% | decrease in the average body weight from baseline ([5]; 2000 mg/kg, Day 7): 2% | body weight of individual mice ([5]; 2000 mg/kg, Day 7, in g (unit assumed)): 26.8 and 24.9 and 25.0 and 25.9 and 25.4 and 26.3 | average body weight ([5]; 2000 mg/kg, Day 14): 27 g | average body weight, % from baseline ([5]; 2000 mg/kg, Day 14): 3% | body weight of individual mice ([5]; 2000 mg/kg, Day 14): 26.9 (2×) and 26.0 and 26.6 and 28.7 and 27.0 | macroscopic examination of internal organs at autopsy ([5]; Day 15): did not reveal any pathological changes; also recorded: did not reveal any abnormalities | hazard class / category ([5]; mouse, in vivo): 5th or non-classified category and 4th hazard class and 5th or unclassified category | toxicity ([5]; summary statement): absence of toxicity | signs of toxic damage to internal organs at autopsy ([6]; end of the experiment): No specific signs of toxic damage to internal organs were found | clinical signs of toxicity ([6]; mouse, in vivo): no clinical signs of toxicity being observed | effects on the content of triglycerides in blood serum [7]: absence of effects | hypocholesterolemic activity [7]: hypocholesterolemic activity

CC/C(=C(\c1ccccc1)c1ccc(OCCN(C)C)cc1)c1ccccc1 [Tamoxifen]
proliferation of tumor MCF-7 cells [1]: inhibited to the same extent | average body weight of mice (M) ([6]; Day 0): 31.0 g | average body weight of mice (M) ([6]; Day 7): 32.0 g | average body weight of mice (M) ([6]; Day 14): 32.9 g | average body weight of mice (M) ([6]; Day 21): 32.8 g | average body weight of mice (M) ([6]; Day 28): 34.2 g | Body weight ([6]; Day 28, All mice): 34.2 ± 1.4 g | Body weight ([6]; Day 28, estrus (E-9)): 34.2 ± 1.4 g
